According to US10336689B1, “Gossypol eflornithine Schiff base compound with antitumor activities and a method of preparing the same” (SHAANXI UNIVERSITY OF SCIENCE AND TECHNOLOGY, priority 2019, dated 2019):
Where two headings read alike, the source gives them in different places.

Columns and labels:
Assay type in all cases: cell-based
[1] = system: human hepatoma cells (HepG2); assay: MTT tumor cell proliferation inhibition test, HepG2; settings: read-out: Half Inhibitory Concentration IC50, HepG2
Experimental: (§1) The gossypol eflornithine Schiff base compound was subjected to tumor cell proliferation inhibition test, and conventional MTT method was used.
(§2) Cell lines: human hepatoma cells (HepG2), human lung cancer cells (A-549), human gastric cancer cells (SGC-7901). The culture medium was DMEM+15% NBS+double antibody.
(§3) Sample solution preparation: after dissolving with DMSO (Merck), PBS (−) was added to obtain 100 μmol/L solution or homogeneous suspension. The solution was diluted with PBS (−) in DMSO to a final concentration of 0.1, 1, 10, 20, 40, 60, 80, 100 μmol/L.
(§4) Gossypol and eflornithine used as control solution, prepared under the same condition.
(§5) Cell culture: adherent growth Tumor cells were cultured in 1640 medium containing 10% inactivated neonatal bovine serum and penicillin, streptomycin (1 million U/L), placed in carbon dioxide incubator at 37° C., 5% CO2, and saturated humidity. Cells were treated serially passaged 2-3 times. The first culture was washed with PBS 2 times, and digested with trypsin. Fresh culture medium was added evenly, cells were adjusted to an appropriate concentration and transferred into a new culture flask. […]
(§6) Experimental Principle: Living cells mitochondria in the dehydrogenase can reduce yellow MTT to water-insoluble blue-violet product MT (MTT formazan), deposited in the cells. […] DMSO can dissolve blue violet crystals, and the color depth is proportional to the amount contained, so the absorbance measured by the microplate reader can reflect the cell viability.
(§7) Methods: The exponential phase cells were digested and counted and seeded in 96-well plates at a density of 2×10^4/mL at 100 μl per well. […] After 48 hours, the supernatant was discarded, and 100 μl of MTT ((2-(4,5-dimethyl-2-thiazolyl)-3,5-diphenyl-2H-[…]) (1 mg/mL) was added to each well. After another 4 hours, the supernatant was discarded, and 100 μl of DMSO was added to each well. After mixing, the absorbance was measured at 570 nm using a microplate reader. An IC50 calculation software was used to determine the half inhibitory concentration (IC50).

[2] = system: human gastric cancer cells (SGC-7901); assay: MTT tumor cell proliferation inhibition test, SGC-7901; settings: for IC50: Homo sapiens, read-out: Half Inhibitory Concentration IC50, SGC-7901
Experimental: as §1, §2, §3, §4
Cell culture: adherent growth Tumor cells were cultured in 1640 medium containing 10% inactivated neonatal bovine serum and penicillin, streptomycin (1 million U/L), placed in carbon dioxide incubator at 37° C., 5% CO2, and saturated humidity. Cells were treated serially passaged 2-3 times. The first culture was washed with PBS 2 times, and digested with trypsin. Fresh culture medium was added evenly, cells were adjusted to an appropriate concentration and transferred into a new culture flask. Cell in an exponential phase were chosen for the tests.
MTT Assay for Cell Viability and IC50 Determination:
Experimental Principle: Living cells mitochondria in the dehydrogenase can reduce yellow MTT to water-insoluble blue-violet product MT (MTT formazan), deposited in the cells. The amount of production is proportional to the number of living cells. […] DMSO can dissolve blue violet crystals, and the color depth is proportional to the amount contained, so the absorbance measured by the microplate reader can reflect the cell viability.
Methods: The exponential phase cells were digested and counted and seeded in 96-well plates at a density of 2×10^4/mL at 100 μl per well. After 24 hours of incubation, the cells to be tested were treated with 0.1, 1, 10, 20, 40, 60, 80, 100 μmol/L of the compounds. Each experimental group had 5 wells in each concentration, and the culture medium containing 0.4% DMSO was used as control. After 48 hours, the supernatant was discarded, and 100 μl of MTT ((2-(4,5-dimethyl-2-thiazolyl)-3,5-diphenyl-2H-[…]) (1 mg/mL) was added to each well. After another 4 hours, the supernatant was discarded, and 100 μl of DMSO was added to each well. After mixing, the absorbance was measured at 570 nm using a microplate reader. An IC50 calculation software was used to determine the half inhibitory concentration (IC50).

[3] = system: human lung cancer cells (A-549); assay: MTT tumor cell proliferation inhibition test, A-549; settings: read-out: Half Inhibitory Concentration IC50, A549
Experimental: as §1, §2, §3, §4, §5, §6, §7

[4] = HepG2 cells, MTT, 48 hours treatment
[5] = SGC-7901 cells, MTT, 48 hours treatment
[6] = A549 cells, MTT, 48 hours treatment

| SMILES | IC50 [1, 4] [µM] | IC50 [2, 5] [µM] | antitumor activity against SGC-7901 cell lines compared with gossypol ([2]; SGC-7901 cells, MTT, comparison with gossypol) | IC50 [3, 6] [µM] | IC50 ([1]; HepG2, 48 h) [µM] | IC50 ([2]; SGC-7901, 48 h) [µM] | IC50 ([3]; A549, 48 h) [µM] |
| --- | --- | --- | --- | --- | --- | --- | --- |
| Cc1cc2c(C(C)C)c(O)c(O)c(/C=N\CCCC(N)(C(=O)O)C(F)F)c2c(O)c1-c1c(C)cc2c(C(C)C)c(O)c(O)c(/C=N\CCCC(N)(C(=O)O)C(F)F)c2c1O (stereo not shown) [gossypol eflornithine Schiff base compound] | 20.1 ± 0.57 | 11.1 ± 0.34 | better antitumor activity against SGC-7901 cell lines than gossypol | 11.6 ± 0.2 | – | – | – |
| NCCCC(N)(C(=O)O)C(F)F (stereo not shown) [Eflornithine] | > 100 | > 100 | – | > 100 | – | – | – |
| Cc1cc2c(C(C)C)c(O)c(O)c(C=O)c2c(O)c1-c1c(C)cc2c(C(C)C)c(O)c(O)c(C=O)c2c1O [Gossypol] | – | – | – | – | 9.55 ± 0.41 | 19.8 ± 0.66 | 13 ± 0.32 |
